Experimental data from ChEMBL document CHEMBL4184137, “Lysine Deacetylase Inhibitors in Parasites: Past, Present, and Future Perspectives” (J Med Chem, 2017).
pIC50: −log10 of the molar value. Blank lines part the entries; values can stand above or below the compound they belong to.

What was measured:
Histone deacetylase 8 [1] = biological target: T1, Histone deacetylase 8 (Schistosoma mansoni, UniProt A5H660); assay: Inhibition of Schistosoma mansoni HDAC8 using Fluor de Lys(R) as substrate by fluorimetric assay
T1 sequence (A5H660 whole entry): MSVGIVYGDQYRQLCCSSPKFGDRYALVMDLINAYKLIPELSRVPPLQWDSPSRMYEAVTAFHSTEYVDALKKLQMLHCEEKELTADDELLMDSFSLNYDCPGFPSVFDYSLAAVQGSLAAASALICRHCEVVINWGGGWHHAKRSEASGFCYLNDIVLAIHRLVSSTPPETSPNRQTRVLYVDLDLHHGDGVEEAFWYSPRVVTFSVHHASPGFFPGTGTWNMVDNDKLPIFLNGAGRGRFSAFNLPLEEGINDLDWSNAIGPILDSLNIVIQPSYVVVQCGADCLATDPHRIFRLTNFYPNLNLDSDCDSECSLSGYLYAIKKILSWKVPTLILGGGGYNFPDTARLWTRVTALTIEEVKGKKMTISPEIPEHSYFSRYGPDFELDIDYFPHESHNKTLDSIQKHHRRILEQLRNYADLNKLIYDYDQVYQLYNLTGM

Histone deacetylase 8 [2] = biological target: T2, Histone deacetylase 8 (Homo sapiens, UniProt Q9BY41); assay: Inhibition of human HDAC8 using Fluor de Lys(R) as substrate by fluorimetric assay
T2 sequence (Q9BY41 whole entry): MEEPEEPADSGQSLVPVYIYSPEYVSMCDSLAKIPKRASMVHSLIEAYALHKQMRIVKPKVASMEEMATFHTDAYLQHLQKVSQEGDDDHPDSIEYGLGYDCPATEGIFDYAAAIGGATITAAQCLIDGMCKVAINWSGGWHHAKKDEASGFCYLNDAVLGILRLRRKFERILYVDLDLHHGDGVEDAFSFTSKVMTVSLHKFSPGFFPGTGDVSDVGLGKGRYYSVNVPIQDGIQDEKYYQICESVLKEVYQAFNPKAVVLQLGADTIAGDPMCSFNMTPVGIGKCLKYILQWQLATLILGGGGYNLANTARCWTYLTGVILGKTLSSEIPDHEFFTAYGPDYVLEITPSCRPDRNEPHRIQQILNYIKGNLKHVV

Histone deacetylase 1 = Histone deacetylase 1 (Homo sapiens, UniProt Q13547); assay: Inhibition of human HDAC1 using Z(Ac)Lys-AMC as substrate by fluorimetric assay
Chain of Histone deacetylase 1 (Q13547 whole entry): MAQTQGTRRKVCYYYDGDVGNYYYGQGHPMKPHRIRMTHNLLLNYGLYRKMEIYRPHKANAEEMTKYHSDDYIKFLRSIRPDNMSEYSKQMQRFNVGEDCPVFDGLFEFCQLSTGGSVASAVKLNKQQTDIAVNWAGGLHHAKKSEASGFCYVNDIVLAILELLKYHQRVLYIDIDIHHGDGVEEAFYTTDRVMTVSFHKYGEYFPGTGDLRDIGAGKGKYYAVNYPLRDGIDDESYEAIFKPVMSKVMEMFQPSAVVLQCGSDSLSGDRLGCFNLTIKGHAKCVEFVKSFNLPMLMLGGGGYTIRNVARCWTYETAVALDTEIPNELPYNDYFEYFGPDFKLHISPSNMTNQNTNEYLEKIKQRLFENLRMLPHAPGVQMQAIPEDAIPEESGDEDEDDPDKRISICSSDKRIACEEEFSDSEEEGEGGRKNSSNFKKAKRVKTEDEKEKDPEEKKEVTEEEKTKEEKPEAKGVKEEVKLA

[3] = biological target: T3, Protein deacetylase HDAC6 (Homo sapiens, UniProt Q9UBN7); assay: Inhibition of human HDAC6 using Z(Ac)Lys-AMC as substrate by fluorimetric assay
T3 sequence (Q9UBN7 whole entry): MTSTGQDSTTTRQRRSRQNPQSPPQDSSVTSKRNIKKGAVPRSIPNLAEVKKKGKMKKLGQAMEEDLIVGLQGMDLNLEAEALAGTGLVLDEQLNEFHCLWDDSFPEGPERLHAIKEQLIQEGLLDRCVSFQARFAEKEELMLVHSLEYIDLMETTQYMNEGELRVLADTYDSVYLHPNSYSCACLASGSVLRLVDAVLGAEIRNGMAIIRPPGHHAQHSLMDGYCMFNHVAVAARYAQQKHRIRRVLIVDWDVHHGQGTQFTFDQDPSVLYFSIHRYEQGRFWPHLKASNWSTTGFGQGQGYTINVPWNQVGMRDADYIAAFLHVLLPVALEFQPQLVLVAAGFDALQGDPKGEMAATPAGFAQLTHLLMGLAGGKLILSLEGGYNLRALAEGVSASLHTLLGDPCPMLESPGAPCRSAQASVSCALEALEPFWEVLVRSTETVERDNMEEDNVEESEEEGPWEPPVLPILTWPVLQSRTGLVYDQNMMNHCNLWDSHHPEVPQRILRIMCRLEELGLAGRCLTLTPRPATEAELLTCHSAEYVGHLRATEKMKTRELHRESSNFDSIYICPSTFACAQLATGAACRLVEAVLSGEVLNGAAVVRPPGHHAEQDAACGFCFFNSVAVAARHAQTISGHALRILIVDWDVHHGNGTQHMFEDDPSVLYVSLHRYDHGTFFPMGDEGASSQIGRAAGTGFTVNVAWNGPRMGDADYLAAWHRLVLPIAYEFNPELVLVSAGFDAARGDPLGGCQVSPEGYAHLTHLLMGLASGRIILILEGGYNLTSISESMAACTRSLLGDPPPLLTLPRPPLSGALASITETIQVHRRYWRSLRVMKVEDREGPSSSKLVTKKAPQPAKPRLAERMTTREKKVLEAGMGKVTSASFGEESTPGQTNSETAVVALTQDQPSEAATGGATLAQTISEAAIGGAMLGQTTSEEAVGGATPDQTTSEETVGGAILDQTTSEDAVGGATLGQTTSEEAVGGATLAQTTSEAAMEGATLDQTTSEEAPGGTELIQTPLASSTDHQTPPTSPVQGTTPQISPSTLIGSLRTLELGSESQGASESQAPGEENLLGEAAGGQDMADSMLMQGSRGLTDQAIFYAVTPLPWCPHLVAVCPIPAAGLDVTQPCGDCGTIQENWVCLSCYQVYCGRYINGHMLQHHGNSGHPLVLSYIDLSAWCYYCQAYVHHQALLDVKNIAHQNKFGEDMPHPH

Schistosoma mansoni = assay: Antiparasitic activity against Schistosoma mansoni assessed as reduction in cell viability at 50 uM after 3 days relative to control; assay type: functional
Plasmodium falciparum [4] = assay: Gametocytocidal activity against transgenic GFP-fused Plasmodium falciparum NF54 early stage gametocytes after 72 hrs by Mitotracker Red CMH2XRos staining based microscopic method; assay type: functional, organism-based; settings: NF54, 72 h
Plasmodium falciparum [5] = assay: Gametocytocidal activity against transgenic GFP-fused Plasmodium falciparum NF54 late stage gametocytes after 72 hrs by Mitotracker Red CMH2XRos staining based microscopic method; assay type: functional, organism-based; settings: NF54, 72 h
Plasmodium falciparum [6] = assay: Antimalarial activity against Plasmodium falciparum infected in human erythrocytes after 24 hrs by microbeta scintillation counting-based [3H]-hypoxanthine incorporation assay; assay type: functional, organism-based
[7] = Selectivity index, ratio of IC50 for human NHDF cells to IC50 for Plasmodium falciparum; assay type: toxicity; settings: read-out: Ratio IC50
[8] = Selectivity index, ratio of IC50 for HUVEC to IC50 for Plasmodium falciparum; assay type: toxicity; settings: human, read-out: Ratio IC50
[9] = Selectivity index, ratio of IC50 for human PTC cells to IC50 for Plasmodium falciparum; assay type: toxicity; settings: read-out: Ratio IC50
[10] = Selectivity index, ratio of IC50 for human NFF cells to IC50 for Plasmodium falciparum; assay type: toxicity; settings: read-out: Ratio IC50
Plasmodium falciparum [11] = assay: Antimalarial activity against Plasmodium falciparum using Malstat reagent by parasite lactate dehydrogenase assay; assay type: functional, organism-based
Histone deacetylase = biological target: T4, Histone deacetylase (Plasmodium falciparum, UniProt Q9XYC7); assay: Inhibition of recombinant Plasmodium falciparum HDAC1 using HDAC substrate-3 after 30 mins by fluorescence assay
T4 sequence (Q9XYC7 whole entry): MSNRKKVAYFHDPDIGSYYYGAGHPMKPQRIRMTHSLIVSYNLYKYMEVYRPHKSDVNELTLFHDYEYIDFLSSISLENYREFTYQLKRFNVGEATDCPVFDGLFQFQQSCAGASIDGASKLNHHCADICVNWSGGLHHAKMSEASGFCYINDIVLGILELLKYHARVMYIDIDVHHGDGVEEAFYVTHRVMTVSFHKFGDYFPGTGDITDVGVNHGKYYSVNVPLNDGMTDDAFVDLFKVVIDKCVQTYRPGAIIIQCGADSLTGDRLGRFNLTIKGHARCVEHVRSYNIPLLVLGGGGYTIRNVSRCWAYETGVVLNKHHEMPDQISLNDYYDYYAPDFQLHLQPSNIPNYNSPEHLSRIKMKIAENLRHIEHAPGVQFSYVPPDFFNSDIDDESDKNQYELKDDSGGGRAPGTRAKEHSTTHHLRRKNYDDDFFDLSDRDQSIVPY

Leishmania donovani [12] = assay: Antilieshmanial activity against promastigote stage of Leishmania donovani by fluorimetric assay; assay type: functional, organism-based
Leishmania donovani [13] = assay: Antilieshmanial activity against amastigote stage of Leishmania donovani by fluorimetric assay; assay type: functional, organism-based
[14] = Selectivity index, ratio of IC50 for African green monkey Vero cells to IC50 for Plasmodium falciparum D6; assay type: toxicity; settings: read-out: Ratio IC50
[15] = Selectivity index, ratio of IC50 for African green monkey Vero cells to IC50 for Plasmodium falciparum W2; assay type: toxicity; settings: read-out: Ratio IC50
[16] = biological target: T5, NAD-dependent protein deacetylase sirtuin-1 (Homo sapiens, UniProt Q96EB6); assay: Inhibition of human SIRT1 in presence of NAD+ by fluorimetric method
T5 sequence (Q96EB6 whole entry): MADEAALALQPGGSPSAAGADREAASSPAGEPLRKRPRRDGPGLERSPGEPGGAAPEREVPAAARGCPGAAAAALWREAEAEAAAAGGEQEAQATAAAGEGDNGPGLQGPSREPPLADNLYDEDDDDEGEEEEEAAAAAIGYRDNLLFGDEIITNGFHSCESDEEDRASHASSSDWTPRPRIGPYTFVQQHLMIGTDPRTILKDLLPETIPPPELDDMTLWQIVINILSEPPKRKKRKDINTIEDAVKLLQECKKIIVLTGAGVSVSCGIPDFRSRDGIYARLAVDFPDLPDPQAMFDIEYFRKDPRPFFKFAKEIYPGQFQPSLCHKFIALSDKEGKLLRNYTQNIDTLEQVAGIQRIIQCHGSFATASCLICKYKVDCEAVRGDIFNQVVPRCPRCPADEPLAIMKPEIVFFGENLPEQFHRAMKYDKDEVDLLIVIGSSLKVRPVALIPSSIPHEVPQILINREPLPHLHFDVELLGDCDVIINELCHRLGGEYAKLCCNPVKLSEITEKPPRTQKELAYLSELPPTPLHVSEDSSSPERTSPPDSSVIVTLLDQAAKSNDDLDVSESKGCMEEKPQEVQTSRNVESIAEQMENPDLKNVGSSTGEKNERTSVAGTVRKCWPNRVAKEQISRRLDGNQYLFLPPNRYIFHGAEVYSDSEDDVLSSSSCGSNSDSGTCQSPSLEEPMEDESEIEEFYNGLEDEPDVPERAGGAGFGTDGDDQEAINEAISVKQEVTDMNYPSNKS

[17] = Selectivity index, ratio of IC50 for N-terminal His6-tagged recombinant Leishmania infantum SIR2RP1 expressed in Escherichia coli to IC50 for human SIRT1
Leishmania infantum = assay: Antileishmanial activity against amastigote stage of Leishmania infantum MHOM/MA671TMAP263 expressing luciferase after 72 hrs by luciferase assay; assay type: functional, organism-based; settings: MHOM/MA671TMAP263, 72 h

pIC50 (Histone deacetylase 8 [1]): 5.37
pIC50 (Histone deacetylase 8 [2]): 5.51
pIC50 (Histone deacetylase 1): 4.71
pIC50 [3]: 4.43
SMILES: O=C(NO)c1sc2ccccc2c1Cl
Activity (Schistosoma mansoni): 100%

SMILES: O=C(CCCCCCC(=O)Nc1ccccc1)NO [VORINOSTAT]
pIC50 (Plasmodium falciparum [4]): 5.18 to 5.77
pIC50 (Plasmodium falciparum [5]): 5.18 to 5.77

pIC50 (Plasmodium falciparum [6]): 6.82 to 7.10
SMILES: CCCCc1nc2cc(/C=C/C(=O)NO)ccc2n1CCN(CC)CC [PRACINOSTAT]
selectivity ratio [7]: 4 to 1250
selectivity ratio [8]: 4 to 1250
selectivity ratio [9]: 4 to 1250
selectivity ratio [10]: 4 to 1250

pIC50 (Plasmodium falciparum [11]): 5.88 to 6.12
pIC50 (Histone deacetylase): 6.40
pIC50 (Leishmania donovani [12]): 5.49
pIC50 (Leishmania donovani [13]): 5.33
SMILES: CC[C@H]1OC(=O)[C@H](C)[C@@H](O[C@H]2C[C@@](C)(OC)[C@@H](O)[C@H](C)O2)[C@H](C)[C@@H](O[C@@H]2O[C@H](C)C[C@H](N(C)Cc3ccc(-c4cn(CCCCCCCCCC(=O)NO)nn4)cc3)[C@H]2O)[C@](C)(O)C[C@@H](C)C(=O)[C@H](C)[C@@H](O)[C@]1(C)O
selectivity ratio [14]: > 3.4
selectivity ratio [15]: > 6

pIC50 [16]: 4.01
Ratio IC50 [17]: 17
pIC50 (Leishmania infantum): 5.22
SMILES: O=C1c2cccc3cccc(c23)C(=O)N1CCCNCCCCCCCCCNCCCN1C(=O)c2cccc3cccc(c23)C1=O
